Test results taken from ChEMBL document CHEMBL1201862, “PubChem BioAssay data set” (2004).
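Five concentrations, 48 hours, 96-well plates. The concentration for 50% growth inhibition is given as GI50.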 Activity calls are given as the source filed them. Cut-off read from the data, not from the text of the source: active = GI50 up to about 1.1 µM and inactive = higher.

Experiments:
Experiment in all cases: NCI-60 cell line screen, 48 h
[1] = test system: SF-268
[2] = test system: NCI-H460
[3] = test system: HCT-15
[4] = test system: NCI-H23
[5] = test system: RXF 393
[6] = test system: K562
[7] = test system: COLO 205
[8] = test system: SNB-19
[9] = test system: SK-OV-3
[10] = test system: EKVX
[11] = test system: Malme-3M
[12] = test system: HL-60
[13] = test system: HOP-62
[14] = test system: SF-295
[15] = test system: RPMI-8226
[16] = test system: SR

Compound | GI50 [1] | GI50 [2] | GI50 [3] [µM] | GI50 [4] | GI50 [5] | GI50 [6] | GI50 [7] | GI50 [8] | GI50 [9] | GI50 [10] | GI50 [11] | GI50 [12] | GI50 [13] | GI50 [14] | GI50 [15] | GI50 [16]
COC(=O)C(Cc1c[nH]c2ccccc12)NC(=O)C(Cc1c[nH]c2ccccc12)NC(=O)OCc1ccccc1 (stereo not drawn) | 19.1 µM (inactive) | 18.1 µM (inactive) | 17.4 | 17.3 µM (inactive) | 19.5 µM (inactive) | 23.6 µM (inactive) | 16.8 µM (inactive) | 17.5 µM (inactive) | 19.7 µM (inactive) | 18.6 µM (inactive) | 39.6 µM (inactive) | 20.8 µM (inactive) | 19.7 µM (inactive) | 17.9 µM (inactive) | 11.7 µM (inactive) | 
CCOC(=O)C1N(S(=O)(=O)c2ccc(C)cc2)CCC12c1ccccc1N(C(C)=O)C2c1ccc(OC)c(OC)c1 (stereo not drawn) | > 100 µM (inactive) | > 100 µM (inactive) |  | > 100 µM (inactive) | > 100 µM (inactive) | 80.7 µM (inactive) | > 100 µM (inactive) | > 100 µM (inactive) | > 100 µM (inactive) | > 100 µM (inactive) | > 100 µM (inactive) | 48.1 µM (inactive) | > 100 µM (inactive) | > 100 µM (inactive) | 65.5 µM (inactive) | 
COCOCc1cc(OCc2ccccc2)c(OC)cc1Br | 84.9 µM (inactive) | > 100 µM (inactive) | 40.9 | > 100 µM (inactive) | 47.4 µM (inactive) | 63.8 µM (inactive) | > 100 µM (inactive) | > 100 µM (inactive) |  | > 100 µM (inactive) | > 100 µM (inactive) |  | > 100 µM (inactive) | > 100 µM (inactive) | 47 µM (inactive) | 63.1 µM (inactive)
O=c1[nH]c2c(c3ccccc13)CCc1ccccc1-2 | > 100 µM (inactive) |  | > 100 | > 100 µM (inactive) | > 100 µM (inactive) | > 100 µM (inactive) | > 100 µM (inactive) | > 100 µM (inactive) | > 100 µM (inactive) | > 100 µM (inactive) | > 100 µM (inactive) |  |  | > 100 µM (inactive) | > 100 µM (inactive) | > 100 µM (inactive)
O=C(NCC#CCO)C(F)(F)F | > 100 µM (inactive) | > 100 µM (inactive) | > 100 | > 100 µM (inactive) | > 100 µM (inactive) |  |  | > 100 µM (inactive) | 97.5 µM (inactive) | > 100 µM (inactive) | > 100 µM (inactive) |  | > 100 µM (inactive) | > 10 µM (inactive) |  | > 100 µM (inactive)
COc1ccc(-c2onc(-c3ccc([N+](=O)[O-])cc3)c2C2=NCCN2)cc1 | 72.3 µM (inactive) | 45.9 µM (inactive) | > 100 | > 100 µM (inactive) | 32.3 µM (inactive) | > 100 µM (inactive) | > 100 µM (inactive) | 50.5 µM (inactive) |  | > 100 µM (inactive) | > 100 µM (inactive) | > 100 µM (inactive) | > 100 µM (inactive) | 35.2 µM (inactive) | > 100 µM (inactive) | > 100 µM (inactive)
Cc1nc2c(N)ncnc2o1 | > 100 µM (inactive) | > 100 µM (inactive) | > 100 | > 100 µM (inactive) | > 100 µM (inactive) | > 100 µM (inactive) | > 100 µM (inactive) | > 100 µM (inactive) | > 100 µM (inactive) | > 100 µM (inactive) | > 100 µM (inactive) | > 100 µM (inactive) | > 100 µM (inactive) | > 100 µM (inactive) |  | 
COc1ccc2c(C(=O)O)cc3ccccc3c2c1OC | 19.4 µM (inactive) |  |  | 22.2 µM (inactive) | 15.2 µM (inactive) | 24.2 µM (inactive) | 22.1 µM (inactive) | 43.6 µM (inactive) | 38.5 µM (inactive) | 20.1 µM (inactive) | 21.9 µM (inactive) | 27.1 µM (inactive) | 69.3 µM (inactive) | 47 µM (inactive) | 31 µM (inactive) | 30.5 µM (inactive)
O=[N+]([O-])C(=C(c1ccccc1)c1ccccc1)[N+](=O)[O-] | 4.57 µM (inactive) | 5.57 µM (inactive) | 13.8 | 17.4 µM (inactive) | 3.69 µM (inactive) | 20.5 µM (inactive) | 12.4 µM (inactive) | 15.7 µM (inactive) |  | > 10 µM (inactive) |  | 3.32 µM (inactive) | > 10 µM (inactive) | 13.5 µM (inactive) | 2.45 µM (inactive) | 3.29 µM (inactive)
Cc1nc2c(n1CCC(C)C)C(=O)c1ccccc1C2=O | 14.3 µM (inactive) | 6.08 µM (inactive) | 11.9 | 22.3 µM (inactive) | 23.4 µM (inactive) | 8.07 µM (inactive) | 14.3 µM (inactive) | 39.7 µM (inactive) | 38.4 µM (inactive) | 29.7 µM (inactive) | 24.1 µM (inactive) | 6 µM (inactive) | 18 µM (inactive) | 21.3 µM (inactive) |  | 4.71 µM (inactive)
CC[C@](C)(O)C(=O)O[C@H]1C(=O)O[C@@H]2C[C@H]3C(C)=C[C@H](O)[C@@H](O)[C@]3(C)[C@H]3[C@@]4(O)OC[C@]32[C@@H]1[C@@H](C)[C@H]4O | 52.5 µM (inactive) | 9.73 µM (inactive) | 58.2 | 5.78 µM (inactive) | 0.631 µM (active) | 8.3 µM (inactive) | 32.7 µM (inactive) | 9.79 µM (inactive) | 71.9 µM (inactive) | 9.33 µM (inactive) | 8.93 µM (inactive) | 7.85 µM (inactive) | 35.1 µM (inactive) | 46.5 µM (inactive) | 4.34 µM (inactive) | 
CC(=O)Nc1ccc(OCC(O)CO)cc1 (stereo not drawn) | > 100 µM (inactive) | > 100 µM (inactive) | 29.5 | > 100 µM (inactive) | > 100 µM (inactive) | 16.8 µM (inactive) | > 100 µM (inactive) | > 100 µM (inactive) | > 100 µM (inactive) | > 100 µM (inactive) | > 100 µM (inactive) |  | > 100 µM (inactive) | > 100 µM (inactive) | 21.2 µM (inactive) | > 100 µM (inactive)
C=CCN1CCC23c4c5ccc(O)c4OC2C(=NN=C2CCC4(O)C6Cc7ccc(O)c8c7C4(CCN6CC=C)C2O8)CCC3(O)C1C5 (stereo not drawn) | 53.8 µM (inactive) | 20.5 µM (inactive) | 35.5 | > 100 µM (inactive) |  | 26.2 µM (inactive) | 19.9 µM (inactive) | 44.3 µM (inactive) | 37.5 µM (inactive) | 28.5 µM (inactive) | 19.1 µM (inactive) | > 10 µM (inactive) | 21.4 µM (inactive) | 20.7 µM (inactive) | 39.2 µM (inactive) | 
Cc1cc2c(=O)c3ccc(Cl)cc3[nH]c2c(C(=O)O)c1C | > 100 µM (inactive) | > 100 µM (inactive) | > 100 | > 100 µM (inactive) | 47.5 µM (inactive) | > 100 µM (inactive) | > 100 µM (inactive) | > 100 µM (inactive) | > 100 µM (inactive) | > 100 µM (inactive) | > 100 µM (inactive) |  | > 100 µM (inactive) | > 100 µM (inactive) | > 100 µM (inactive) | 
CC(C)(C)C(=O)Nc1ccccc1Br |  | > 100 µM (inactive) | > 100 |  | > 100 µM (inactive) | > 100 µM (inactive) | > 100 µM (inactive) | > 100 µM (inactive) | > 100 µM (inactive) | > 100 µM (inactive) | > 100 µM (inactive) | > 100 µM (inactive) | > 100 µM (inactive) | > 100 µM (inactive) | > 100 µM (inactive) | 
CCCCN(CCCC)CCCn1cnc2ncccc2c1=O | > 100 µM (inactive) | > 100 µM (inactive) |  | > 100 µM (inactive) | > 100 µM (inactive) | > 100 µM (inactive) | 65.6 µM (inactive) | > 100 µM (inactive) | > 100 µM (inactive) | > 100 µM (inactive) | > 100 µM (inactive) |  | > 100 µM (inactive) | > 100 µM (inactive) |  | > 100 µM (inactive)
COc1ccc(C(=O)C(C(=O)CCC(=O)Nc2ccc(Cl)c(Cl)c2)c2ccc(OC)cc2)cc1 (stereo not drawn) | > 100 µM (inactive) | > 100 µM (inactive) | > 100 | > 100 µM (inactive) | > 100 µM (inactive) | > 100 µM (inactive) |  | > 100 µM (inactive) |  | > 100 µM (inactive) | > 100 µM (inactive) | 97.1 µM (inactive) | > 100 µM (inactive) | > 100 µM (inactive) | > 100 µM (inactive) | 
CSc1ccc2c(cc1=O)C(NC(=O)c1ccc(OC(C)=O)cc1)CCc1cc(O)c(O)c(O)c1-2 (stereo not drawn) | 42.1 µM (inactive) | 23.2 µM (inactive) | 18.8 | 25.3 µM (inactive) |  | 1.95 µM (inactive) | 16.9 µM (inactive) | 35.2 µM (inactive) | 38.4 µM (inactive) | 20.5 µM (inactive) | 48.9 µM (inactive) | 3.31 µM (inactive) | 26.9 µM (inactive) | 19.1 µM (inactive) |  | 7.94 µM (inactive)
CCCN(CCC)c1c([N+](=O)[O-])cc(C(N)=O)cc1[N+](=O)[O-] | > 100 µM (inactive) | 68.2 µM (inactive) | 62.2 | > 100 µM (inactive) |  | 31.1 µM (inactive) | 86.9 µM (inactive) |  | 58.3 µM (inactive) | 36.3 µM (inactive) | 62.1 µM (inactive) | 27.8 µM (inactive) |  | > 100 µM (inactive) | > 100 µM (inactive) | 
CC12CCC(=O)N1c1ccc([N+](=O)[O-])cc1N2 (stereo not drawn) | > 100 µM (inactive) |  | > 100 | > 100 µM (inactive) | > 100 µM (inactive) | > 100 µM (inactive) | > 100 µM (inactive) | > 100 µM (inactive) | > 100 µM (inactive) | > 100 µM (inactive) | > 100 µM (inactive) | 92.9 µM (inactive) | > 100 µM (inactive) | > 100 µM (inactive) | > 100 µM (inactive) | 71 µM (inactive)
